Patent publication US20220110902A1, “Methods of treating amyloid-beta peptide diseases” (Ecole Polytechnique Federale de Lausanne, priority 2016, published 2022)
Entries after “also recorded” stand apart in the source; their conditions may differ.

How the values were obtained:
[1] = system: CL2122 worms; assay: Transcript analysis of the MSR in CL2122 control worms; type: in vivo, C. elegans; conditions: CL2122, day 1 of adulthood; dox 15 μg/mL, NR 1 mM, AZD 0.3 μM
Method: C. elegans: A total of ˜3000 worms per condition, divided in 3 biological replicates, was recovered in M9 buffer from NGM plates and lysed in the TriPure RNA reagent. Each experiment was repeated twice. Total RNA was transcribed to cDNA using QuantiTect Reverse Transcription Kit (Qiagen). Expression of selected genes was analyzed using the LightCycler480 system (Roche) and LightCycler® 480 SYBR Green I Master reagent (Roche). For C. elegans, 2 housekeeping genes were used to normalize the expression data, namely actin (act-1) and peroxisomal membrane protein 3 (pmp-3).
atfs-1p::atfs-1 expression vector was created by amplifying 1488 bp sequence upstream from the transcription start site of atfs-1 coding region by using worm genomic DNA for the promoter region. […] The correctness of the atfs-1p::atfs-1 construct was assessed by sequencing with the indicated pPD30.38 and atfs-1 seq. primers. Two independent GMC101 lines (AUW9 and AUW10), and one CL2122 strain (AUW11) carrying atfs-1p::atfs-1 transgene as extrachromosomal array were analyzed in the study. […] The deriving F1 worms were shifted from 20° C. to 25° C. at the L4 stage to induce amyloid accumulation and paralysis, and phenotypes assessed over time as indicated. […]

[2] = system: GMC101 worms; assay: Western-blot of amyloid aggregation in GMC101 worms; type: in vivo, C. elegans; conditions: for Aβ aggregation (proteotoxic stress): GMC101, day 1 of adulthood, dox 15 μg/mL, NR 1 mM, AZD 300 nM
Method: C. elegans: Worms were lysed by sonication with RIPA buffer containing protease and phosphatase inhibitors (Roche), and analyzed by SDS-PAGE and western blot. The concentration of extracted protein was determined by using the Bio-Rad Protein Assay. Proteins were detected using the following antibodies: anti-β-actin (Sigma), anti-tubulin (Santa Cruz), atp-5, ucr-1 (Oxphos cocktail, Abcam), anti-β-Amyloid, 1-16 (6E10) (BioLegend). In addition to the housekeeping proteins, loading was monitored by Ponceau Red to ensure a homogeneous loading. Pixel intensity was quantified by using ImageJ software. Each immunoblot experiment was repeated at least twice using 3 biological replicates each containing approximately 1000 worms.
During the assays, animals were exposed to Myriocin (dissolved in DMSO) from the egg stage on plates seeded with live HT115 E. coli bacteria. Control plates seeded with the same bacteria were prepared with the corresponding concentrations of DMSO. The day of the experiment (day 1 of adulthood, 3 days after hatching), the GMC101 population was shifted to 25° C. in order to induce the amyloid deposition in the body wall muscle. ˜1000 worms were used for western blotting assays.
(§1) Worms were lysed by sonication with RIPA buffer containing protease and phosphatase inhibitors (Roche), and analyzed by western blot. The concentration of extracted protein was determined by the Bio-Rad Protein Assay. Proteins were detected using the following antibodies: anti-β-actin (Sigma) and anti-β-Amyloid (BioLegend). In addition to the housekeeping proteins, loading was monitored by Ponceau Red to ensure a homogeneous loading. The immunoblot experiment employed 3 biological replicates, each containing approximately 1000 worms.
as §1, with “extracted proteins” for “extracted protein”, “3 biologicals” for “3 biological”
The GMC101 worms were recovered 24 h after being shifted at 25° C. The population was treated with UA at two different concentrations, ie 20 uM and 50 uM.

Row | SMILES | MSR transcripts in control strain [1] | Aβ aggregation (proteotoxic stress) [2] | accumulation of amyloid-β aggregates ([2]; GMC101, Day 1 of adulthood, Myriocin 5 uM and 10 uM)
1 | O=C(c1cc(Cc2n[nH]c(=O)c3ccccc23)ccc1F)N1CCN(C(=O)C2CC2)CC1 [AZD, Olaparib, reference compound] | induction of the MSR was also consistently observed | reduced proteotoxic stress | 
2 | CCCCCCC(=O)CCCCCC/C=C/C[C@@H](O)[C@H](O)[C@@](N)(CO)C(=O)O [Myriocin, (E,2S,3R,4R)-2-amino-3,4-dihydroxy-2-(hydroxymethyl)-14-oxoicos-6-enoic acid] |  |  | dose-dependently decreased; also recorded: dose-dependent reduction
3 | NC(=O)c1ccc[n+]([C@@H]2O[C@H](CO)[C@@H](O)[C@H]2O)c1 [NR, Nicotinamide Riboside triflate] | induction of the MSR was also consistently observed | reduced proteotoxic stress | 
